Source: patent US9872919B2, “Prodrugs for selective anticancer therapy” (THE RESEARCH FOUNDATION FOR THE STATE UNIVERSITY OF NEW YORK, priority 2012, dated 2018)

What was measured:
[1] = tested on: pancreatic cancer cells (BXPC-3 and MiaPaca-2); assay: MTS cell viability assay, pancreatic cancer cell lines; format: cell-based, human
Experimental: FIG. 16. Anticancer effect of BKAc-Puro on pancreatic cell lines. The cell lines were treated with DMSO (vehicle), BKAc-Puro (54 μM), or Puro (4.2 μM) for 5 d followed by MTS assay. Normal Eph4 (non-pancreatic) cells are shown as control. Data represent mean values of triplicate mesurements±s.d.
FIG. 18. Selective cytotoxicity by BKAc-Puro on pancreatic cancer cells. Pancreatic cancer (BXPC-3 and Miapaca-2), colon cancer (HCT116 as a positive control sensitive to the drug), and normal colon (CCD841-CoN as a negative control) cells were grown and analyzed as in FIG. 13. […]
Cell number was determined by cell counting using improved Neubauer hemacytometer. Cell viability was calculated as the number of viable cells divided by the total number of cells using Trypan Blue Stain (Invitrogen) to distinguish non-viable cells. […] After additional 2-3 h incubation, the absorbance of the formazan at 490 nm was measured by the microplate reader. […] Determination of non-viable cells using PI staining was performed by adding 1 μg/ml of PI solution (Sigma) to the cell culture, prior to the examination under fluorescence microscopy (Axiovert 3, Carl Zeiss) through a×32 objective equipped with a digital imaging processor (Infinity 3, Lumenera).

[2] = tested on: HT29 xenograft tumor, muscle and kidney; assay: Immunological detection of Puro-labeled proteins in tissues of HT29 xenograft mice; format: in vivo; details: 150 mg/kg/dose daily intraperitoneal for 3 d
Experimental: FIG. 29. In vivo anticancer efficacy of Boc-KAc-Puro. (a) Tumor growth in HCT116 xenograft model. Animals were treated with acidified saline control or Boc-KAc-Puro (50 or 150 mg/kg). Values are mean±s.d. (n=5 mice per group). ***P<0.001 compared to the control group. P=0.000716 (50 mg/kg), P=0.000349 (150 mg/kg) at 10 d. (b) Body weight change during the treatment in a was monitored as a sign of general animal health. Values are mean±s.d. (c) Tumor growth in HT29 xenograft model. Animals were treated with acidified saline control or Boc-KAc-Puro (150 mg/kg). Values are mean±s.d. (n=5 mice per group). ***P<0.001 compared to the control group. P=0.000514 (150 mg/kg) at 10 d. (d) Body weight change during the treatment in c was monitored as a sign of general animal health. Values are mean±s.d. (e) Levels of Puro-incorporated proteins were monitored by immunoblotting. […]
Cultured cells or tissue samples were sonicated in RIPA lysis buffer (1% NP-40, 0.1% SDS, 50 mM Tris-HCl pH 7.4, 150 mM NaCl, 0.5% sodium deoxycholate, 1 mM EDTA) supplemented with PMSF and protease inhibitor cocktail (Roche) on ice followed by clarification. […] Proteins of interest were detected with anti-mouse secondary antibody by chemiluminescence (ECL Kit, GE Healthcare Life Sciences). […]

[3] = tested on: HCT116, HT29, CCD841-CoN and Caco-2 cells; assay: Immunological detection of Puro-labeled proteins in cells; format: cell-based, human
Experimental: (§1) FIG. 27. Levels of Puro-incorporated proteins in the cells were monitored by immunoblotting. Indicated cell lines were treated either with vehicle control DMSO or Boc-KAc-Puro (16.9 μM) in the presence or absence of TSA (0.5 μM) for 20 h, followed by preparation of cell lysates. The lower panel (anti-α-Tubulin) serves as a loading control.
as §1, with “28.” for “27.”, “Puro (2.1” for “Boc-KAc-Puro (16.9”, “16” for “20”, “lysates. […]” for “lysates.”
Cultured cells or tissue samples were sonicated in RIPA lysis buffer (1% NP-40, 0.1% SDS, 50 mM Tris-HCl pH 7.4, 150 mM NaCl, 0.5% sodium deoxycholate, 1 mM EDTA) supplemented with PMSF and protease inhibitor cocktail (Roche) on ice followed by clarification. Protein lysates were separated on sodium dodecyl sulfate-polyacrylamide gels and transferred onto nitrocellulose membranes (Whatman). The primary antibodies used were anti-puromycin (3RH11, KeraFAST) and anti-α-tubulin (Sigma-Aldrich). Proteins of interest were detected with anti-mouse secondary antibody by chemiluminescence (ECL Kit, GE Healthcare Life Sciences).

[4] = tested on: HCT116 xenograft tumors; format: in vivo
Experimental: FIG. 29. In vivo anticancer efficacy of Boc-KAc-Puro. (a) Tumor growth in HCT116 xenograft model. Animals were treated with acidified saline control or Boc-KAc-Puro (50 or 150 mg/kg). Values are mean±s.d. (n=5 mice per group). ***P<0.001 compared to the control group. P=0.000716 (50 mg/kg), P=0.000349 (150 mg/kg) at 10 d. (b) Body weight change during the treatment in a was monitored as a sign of general animal health. Values are mean±s.d. (c) Tumor growth in HT29 xenograft model. Animals were treated with acidified saline control or Boc-KAc-Puro (150 mg/kg). Values are mean±s.d. (n=5 mice per group). ***P<0.001 compared to the control group. P=0.000514 (150 mg/kg) at 10 d. (d) Body weight change during the treatment in c was monitored as a sign of general animal health. Values are mean±s.d. (e) Levels of Puro-incorporated proteins were monitored by immunoblotting. Animals bearing HT29 xenograft tumor were given daily intraperitoneal administration of the prodrug at 150 mg/kg/dose for 3 d, followed by preparation of tissue lysates. The lower panel (anti-α-Tubulin) served as a loading control.
Athymic mice (NCr, female, age 6 weeks, Taconic) were subcutaneously injected with 5×10^5 cells (HCT116 or HT29) into the lower flank, then treatment was initiated when small palpable tumors had developed (>3 mm in diameter). […] Tumor volumes and body weight were monitored daily. […] Data were expressed as mean±s.d. […]

In the case of `COc1ccc(C[C@H](NC(=O)[C@H](CCCCNC(C)=O)NC(=O)OC(C)(C)C)C(=O)N[C@H]2[C@@H](O)[C@H](n3cnc4c(N(C)C)ncnc43)O[C@@H]2CO)cc1` [BKAc-Puro, N-[3′-(α-Amino-p-methoxyhydrocinnamamido)-3′-deoxy-N,N-dimethyldenosinyl]-N-α-(t-butoxycarbonyl)-N-ε-acetyl-L-lysineamide], the “anticancer effect on cell viability” value ([1]; 54 μM, 5 d, MTS) was “effective”, the cell death ([1]; cells known to be resistant to 5-FU and Gemicitabine) was “effectively caused cell death” and the “intensity of Puro incorporation in tissues” value [2] was “substantially greater in tumors compared with normal muscle and kidney”. The “intensity of Puro incorporation in the presence of TSA” value ([3]; TSA 0.5 μM) was “compromised intensity”, the “intensity of Puro incorporation, malignant vs normal and non-malignant cells” value ([3]; immunoblot, Boc-KAc-Puro 16.9 μM 20 h, Puro 2.1 μM 16 h) was “substantially greater in malignant cancer cells” and the tumor growth ([4]; 50 and 150 mg/kg/dose daily intraperitoneally for 10 d) was “dose-dependent inhibition of tumor growth”. The “tumor mass vs acidified saline control” value ([4]; P<0.001, 50 and 150 mg/kg, 10 d) was “significantly smaller tumor mass”.
